From article PMC3514216, “SRC Homology 2 Domain Binding Sites in Insulin, IGF-1 and FGF receptor mediated signaling networks reveal an extensive potential interactome” (Cell Communication and Signaling : CCS, 2012)

Experiments:
CrkL SH2 domain = CrkL SH2 domain (Homo sapiens, UniProt P46109); experiment: Fluorescence polarization solution binding; conditions: Rhodamine B-labeled peptide, GST-SH2, Beacon 2000, read-out: Affinity (KD)
Description: (§1) To verify the binding results obtained from addressable peptide arrays we employed an orthogonal method of determining SH2 interactions with peptide ligands. We measured the dissociation constants of 60 binary SH2-peptide pairs in solution by fluorescence polarization (Table 2, Additional file 2: Figures S3A-C).
(§2) Peptides were synthesized using FMOC-chemistry onto pre-loaded tenta-gel resins. Peptides were then labeled with Rhodamine B (Abbey Color) and then cleaved using trifluoroacetic acid. Peptides were lyophilized and then purified using a LC/MS (Agilent 2100). Dissociation constants were measured using the Beacon 2000 (Invitrogen) as previously described.
(§3) Binding Affinities determined by Fluorescence Polarization. Rhodamine B-labeled peptides were mixed with varying concentrations of GST-tagged SH2 domains. Fluorescence polarization measurements were read on a Beacon 2000 (Invitrogen). The curves were fit to a Michaelis-Menten equation to calculate the dissociation constant, KD. […] (C) Affinity measurements that fell below the 2X mean intensity and were considered array negative on the SPOT array.

Grb2 SH2 domain = Grb2 SH2 domain (Homo sapiens, UniProt P62993); experiment: Fluorescence polarization solution binding; conditions: Rhodamine B-labeled peptide, GST-SH2, Beacon 2000, read-out: Affinity (KD)
Sequence of Grb2 SH2 domain (P62993 60-152 limits assumed): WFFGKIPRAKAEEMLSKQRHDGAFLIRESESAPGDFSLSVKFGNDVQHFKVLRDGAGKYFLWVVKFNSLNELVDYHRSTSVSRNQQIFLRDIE
Description: as §1, §2, §3

PI3K1_N SH2 domain = PI3K1_N SH2 domain (Homo sapiens, UniProt P27986); experiment: Fluorescence polarization solution binding; conditions: Rhodamine B-labeled peptide, GST-SH2, Beacon 2000, read-out: Affinity (KD)
Sequence of PI3K1_N SH2 domain (P27986 333-428 limits assumed): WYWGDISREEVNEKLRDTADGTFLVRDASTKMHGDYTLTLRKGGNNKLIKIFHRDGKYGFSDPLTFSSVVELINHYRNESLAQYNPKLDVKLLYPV
Description: as §1, §2, §3

Rasa1_C SH2 domain [1] = biological target: T1, Rasa1_C SH2 domain (Homo sapiens, UniProt P20936); experiment: SPOT peptide array; type: binding; conditions: GST-SH2 0.25 μM, membrane-bound peptide, 1 mM DTT, LiCor read-out
T1 sequence (P20936 351-441 limits assumed): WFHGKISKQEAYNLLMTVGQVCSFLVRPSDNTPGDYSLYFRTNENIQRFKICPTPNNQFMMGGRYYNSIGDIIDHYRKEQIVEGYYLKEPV

panel of 50 SH2 domains = experiment: SPOT peptide array probed with each of 50 GST-SH2 domains; type: binding; conditions: SH2 domains with intensity >3X array mean; GST-SH2 0.25 μM, 1 mM DTT
How it was run: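 Each GST-fused SH2 domain was overlaid on 192 membrane-synthesized pTyr peptides (11-mers, 4 N-terminal and 6 C-terminal flanking residues) and read with anti-GST and near-infrared secondary antibodies. Binding called relative to membrane mean intensity (>3× positive, <1× negative); GST-only probes defined nonspecific peptides.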

PI3K1_C SH2 domain = PI3K1_C SH2 domain (Homo sapiens, UniProt P27986); experiment: Fluorescence polarization solution binding; conditions: Rhodamine B-labeled peptide, GST-SH2, Beacon 2000, read-out: Affinity (KD)
Sequence of PI3K1_C SH2 domain (P27986 624-718 limits assumed): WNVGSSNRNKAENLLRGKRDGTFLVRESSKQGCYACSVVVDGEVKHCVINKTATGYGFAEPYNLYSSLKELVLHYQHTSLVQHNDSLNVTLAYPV
Description: as §1, §2, §3

Ptpn11_N SH2 domain = biological target: T2, Ptpn11_N SH2 domain (Homo sapiens, UniProt Q06124); experiment: Fluorescence polarization solution binding; conditions: Rhodamine B-labeled peptide, GST-SH2, Beacon 2000, read-out: Affinity (KD)
T2 sequence (Q06124 6-102 limits assumed): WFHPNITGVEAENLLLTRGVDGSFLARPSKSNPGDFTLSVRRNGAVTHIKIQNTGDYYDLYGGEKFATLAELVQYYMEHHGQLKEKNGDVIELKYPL
Description: as §1, §2, §3

Rasa1_N SH2 domain = Rasa1_N SH2 domain (Homo sapiens, UniProt P20936); experiment: Fluorescence polarization solution binding; conditions: Rhodamine B-labeled peptide, GST-SH2, Beacon 2000, read-out: Affinity (KD)
Sequence of Rasa1_N SH2 domain (P20936 181-272 limits assumed): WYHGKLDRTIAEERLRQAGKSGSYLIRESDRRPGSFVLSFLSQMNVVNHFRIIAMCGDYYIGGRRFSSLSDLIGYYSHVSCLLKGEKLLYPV

Rasa1_C SH2 domain [2] = biological target: T1, Rasa1_C SH2 domain; experiment: Fluorescence polarization solution binding; conditions: Rhodamine B-labeled peptide, GST-SH2, Beacon 2000, read-out: Affinity (KD)
Shb SH2 domain = Shb SH2 domain (Homo sapiens, UniProt Q15464); experiment: Fluorescence polarization solution binding; conditions: Rhodamine B-labeled peptide, GST-SH2, Beacon 2000, read-out: Affinity (KD)
Sequence of Shb SH2 domain (Q15464 410-504 limits assumed): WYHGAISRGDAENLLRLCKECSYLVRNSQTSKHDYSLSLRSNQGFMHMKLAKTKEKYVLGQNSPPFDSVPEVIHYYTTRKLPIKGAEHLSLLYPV
Description: as §1, §2, §3

Plcg2_C SH2 domain = Plcg2_C SH2 domain (Homo sapiens, UniProt P16885); experiment: Fluorescence polarization solution binding; conditions: Rhodamine B-labeled peptide, GST-SH2, Beacon 2000, read-out: Affinity (KD)
Sequence of Plcg2_C SH2 domain (P16885 646-735 limits assumed): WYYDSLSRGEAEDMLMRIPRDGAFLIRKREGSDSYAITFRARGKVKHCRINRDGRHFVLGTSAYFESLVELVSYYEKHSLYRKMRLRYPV
Description: as §1
(§4) As noted above, this study performs well in terms of reproducing the literature reported interactions between the 50 SH2 domains tested and the 13 proteins represented on the addressable arrays (Table 1). A handful of differences with literature-reported interactions must, by necessity, be reconciled. Our assumption is that a high-throughput (HTP) study such as this one should capture upwards of 85% of known (literature reported) interactions and that results that differ from low throughput studies described in the literature should be subject to further testing to identify the nature of the discrepancy and reveal any weakness in the HTP dataset. […] For instance, FGFR1 Y-766 (SNQEpYLDLSMP) is reported to bind to PLCγ1 in a pTyr dependant manner based on mutational analysis of FGFR1 [55, 56]. […] This may imply that either this is a binding event specific to PLCγ1 (and not PLCγ2), or that the interaction reported at the level of the full-length protein may be more complex, perhaps requiring secondary contact sites that are not available within the context of the short peptide used in the current study. […] We have made an effort to limit false negatives to those of lower affinity, and we are aware of no instance in our dataset of a sub-micromolar affinity interaction being scored as array-negative.
(§5) Peptides were synthesized using FMOC-chemistry onto pre-loaded tenta-gel resins. […] Dissociation constants were measured using the Beacon 2000 (Invitrogen) as previously described.
(§6) Binding Affinities determined by Fluorescence Polarization. […] Fluorescence polarization measurements were read on a Beacon 2000 (Invitrogen). […]

Plcg2_N SH2 domain = Plcg2_N SH2 domain (Homo sapiens, UniProt P16885); experiment: Fluorescence polarization solution binding; conditions: Rhodamine B-labeled peptide, GST-SH2, Beacon 2000, read-out: Affinity (KD)
Sequence of Plcg2_N SH2 domain (P16885 532-635 limits assumed): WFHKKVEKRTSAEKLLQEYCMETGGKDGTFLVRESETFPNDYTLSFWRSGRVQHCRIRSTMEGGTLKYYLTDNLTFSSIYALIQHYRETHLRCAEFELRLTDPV
Description: as §1, §4, §5, §6

Sequence of CrkL SH2 domain (P46109 14-102 limits assumed): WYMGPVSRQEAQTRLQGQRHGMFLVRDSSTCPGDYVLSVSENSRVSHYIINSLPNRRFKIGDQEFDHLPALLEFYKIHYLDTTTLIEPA

Molecule | Kd (PI3K1_N SH2 domain) | Kd (PI3K1_C SH2 domain) | Kd (Ptpn11_N SH2 domain) | Kd (Rasa1_C SH2 domain [2]) | also measured
CC[C@H](C)[C@H](NC(=O)[C@H](Cc1ccc(OP(=O)(O)O)cc1)NC(=O)[C@H](CC(N)=O)NC(=O)[C@H](CC(C)C)NC(=O)CNC(=O)[C@@H](N)CC(N)=O)C(=O)N[C@@H](CC(=O)O)C(=O)N[C@@H](CC(C)C)C(=O)N[C@@H](CC(=O)O)C(=O)N[C@@H](CC(C)C)C(=O)N[C@H](C(=O)O)C(C)C [NGLNpYIDLDLV] | 15 µM |  |  |  | Kd (CrkL SH2 domain): > 50 µM; Kd (Grb2 SH2 domain): > 50 µM
QDSLpYSDPLDS [11-mer phosphotyrosine peptide, p62DOK1 (Y315)] |  |  |  |  | Array positive (Rasa1_C SH2 domain [1]): Yes (Array-positive binding was ascribed to interactions with intensities greater than three times the array mean); Other SH2 domains bound (additional array-positive SH2 domains) (panel of 50 SH2 domains): Abl1, Blk, Crk, Lck, Lyn, Nck1, Src, Zap70_N
CC(C)C[C@H](NC(=O)[C@H](CCC(=O)O)NC(=O)[C@H](Cc1ccc(OP(=O)(O)O)cc1)NC(=O)CNC(=O)[C@H](CCC(=O)O)NC(=O)[C@H](CCC(=O)O)NC(=O)[C@@H](N)CCCCN)C(=O)N1CCC[C@H]1C(=O)N[C@@H](Cc1ccc(O)cc1)C(=O)N[C@@H](CC(N)=O)C(=O)N1CCC[C@H]1C(=O)O [KEEGpYELPYNP] | 1.85 µM | 13 µM | > 50 µM | 1390 nM | Kd (Rasa1_N SH2 domain): 410 nM
CC(C)C[C@H](NC(=O)[C@H](CC(=O)O)NC(=O)[C@H](CC(C)C)NC(=O)[C@H](Cc1ccc(OP(=O)(O)O)cc1)NC(=O)[C@H](CCC(=O)O)NC(=O)[C@H](CC(=O)O)NC(=O)[C@@H](NC(=O)[C@@H](N)CO)[C@@H](C)O)C(=O)N[C@@H](CO)C(=O)N[C@@H](C)C(=O)N1CCC[C@H]1C(=O)O [STDEpYLDLSAP] |  | 2.14 µM | 25 µM | > 17000 nM | Kd (Shb SH2 domain): > 50 µM; Kd (Plcg2_C SH2 domain): 7.49 µM; Kd (Plcg2_N SH2 domain): > 50 µM
